Source: patent US9872495B2, “Peptoid oligomers, pharmaceutical compositions and methods of using the same” (priority 2009, dated 2018)
Converted amounts (≈) assume the structure as drawn. Square brackets hold non-standard residues; d marks the D form. Peptide text beside a SMILES is read from it. Gly(N-(CH2)6NH2) = NCCCCCCNCC(=O)O; Gly(N(CH2)3NH2) = NCCCNCC(=O)O; NhArg = N=C(N)NCCCCNCC(=O)O; N(iPr)Gly = CC(C)NCC(=O)O; Nphe = O=C(O)CNCc1ccccc1; Nleu = CC(C)CNCC(=O)O

How the values were obtained:
Type in all cases: cell-based
[1] = test system: fresh human erythrocytes; assay: Hemolytic activity; settings: for HC10 (concentration where 10% hemolysis is observed) / HC50 (concentration where 50% hemolysis is observed): red cells of human
Procedure: Typically, toxicity is evaluated by hemolytic concentration50 (HC50), which measures the concentration of antimicrobial agents at which 50% of the erythrocytes in the culture are lysed. Significant hemolysis, as evaluated by HC50, was detectable only for peptide gramicidin S (40 μg/mL). […] In order to test hemolytic activity of peptoid oligomers further, more stringent parameters were used. Instead of HC50, hemolytic concentration10 (HC10) was used to evaluate hemolytic activity of peptoids used in this study. HC10 represents the concentration of antimicrobial agents where 10% of erythrocytes are lysed. HC10 values were detectable for only four peptoid oligomers. […] Antimicrobial activity was tested against the gram-negative strain Escherichia coli ATCC 25922, and […] strains Staphylococcus aureus ATCC 25923, and Bacillus subtilis ATCC 6633, according to the guidelines given in the document […]-A7 of the CLSI (Clinical and Laboratory Standards Institute; Clinical and Laboratory Standards Institute. Methods for Dilution Antimicrobial Susceptibility Tests for Bacteria That Grow Aerobically-Seventh Edition: Approved Standard CLSI document […]-A7. CLSI, Wayne, USA, 2006). This reference is incorporated herein in its entirety. Hemolytic activity was tested against fresh human erythrocytes.

[2] = test system: Staphylococcus aureus ATCC 25923; settings: ATCC 25923
Procedure: (§1) Antimicrobial activity was tested against the gram-negative strain Escherichia coli ATCC 25922, and […] strains Staphylococcus aureus ATCC 25923, and Bacillus subtilis ATCC 6633, according to the guidelines given in the document […]-A7 of the CLSI (Clinical and Laboratory Standards Institute; Clinical and Laboratory Standards Institute. Methods for Dilution Antimicrobial Susceptibility Tests for Bacteria That Grow Aerobically-Seventh Edition: Approved Standard CLSI document […]-A7. CLSI, Wayne, USA, 2006). This reference is incorporated herein in its entirety. Hemolytic activity was tested against fresh human erythrocytes.

[3] = test system: Bacillus subtilis ATCC 6633; settings: ATCC 6633
Procedure: as §1

[4] = test system: Escherichia coli ATCC 25922; settings: ATCC 25922
Procedure: as §1

NCCCN1CC(=O)N(Cc2ccccc2)CC(=O)N(CCCN)CC(=O)N(Cc2ccccc2)CC(=O)N(CCCN)CC(=O)N(Cc2ccccc2)CC(=O)N(CCCN)CC(=O)N(Cc2ccccc2)CC(=O)N(CCCN)CC(=O)N(Cc2ccccc2)CC1=O [Compound 25, C(NapNpm)5] (cyclo([Nphe][Gly(N(CH2)3NH2)][Nphe][Gly(N(CH2)3NH2)][Nphe][Gly(N(CH2)3NH2)][Nphe][Gly(N(CH2)3NH2)][Nphe][Gly(N(CH2)3NH2)]))
non-hemolytic up to (concentration) [1]: ≥ 250 µg/mL
HC10 (concentration where 10% hemolysis is observed) [1]: >250 µg/mL
HC50 (concentration where 50% hemolysis is observed) [1]: >250 µg/mL
MIC S. aureus [2]: 7.8 µg/mL (≈ 5.97 µM)
MIC B. sub [3]: 0.5 µg/mL (≈ 0.383 µM)
MIC E. coli [4]: 7.8 µg/mL (≈ 5.97 µM)

NCCCCCCN1CC(=O)N(Cc2ccccc2)CC(=O)N(CCCCCCN)CC(=O)N(Cc2ccccc2)CC(=O)N(CCCCCCN)CC(=O)N(Cc2ccccc2)CC1=O [Compound 19, C(NahNpm)3] (cyclo([Nphe][Gly(N-(CH2)6NH2)][Nphe][Gly(N-(CH2)6NH2)][Nphe][Gly(N-(CH2)6NH2)]))
HC10 (concentration where 10% hemolysis is observed) [1]: >250 µg/mL
HC50 (concentration where 50% hemolysis is observed) [1]: >250 µg/mL
MIC S. aureus [2]: >500 µg/mL
MIC B. sub [3]: 500 µg/mL (≈ 549 µM)
MIC E. coli [4]: 500 µg/mL (≈ 549 µM)

N=C(N)NCCCCN1CC(=O)N(CC(c2ccccc2)c2ccccc2)CC(=O)N(CCCCNC(=N)N)CC(=O)N(CC(c2ccccc2)c2ccccc2)CC(=O)N(CCCCNC(=N)N)CC(=O)N(CC(c2ccccc2)c2ccccc2)CC(=O)N(CCCCNC(=N)N)CC(=O)N(CC(c2ccccc2)c2ccccc2)CC(=O)N(CCCCNC(=N)N)CC(=O)N(CC(c2ccccc2)c2ccccc2)CC1=O [Compound 31, C(NgbNdp)5]
HC10 (concentration where 10% hemolysis is observed) [1]: >62.5 µg/mL
HC50 (concentration where 50% hemolysis is observed) [1]: >250 µg/mL
MIC S. aureus [2]: 250 µg/mL (≈ 123 µM)
MIC B. sub [3]: 250 µg/mL (≈ 123 µM)
MIC E. coli [4]: 250 µg/mL (≈ 123 µM)

CC(=O)N(CCCCCCN)CC(=O)N(CC(=O)N(CCCCCCN)CC(=O)N(CC(=O)N(CCCCCCN)CC(=O)N(CC(N)=O)Cc1ccccc1)Cc1ccccc1)Cc1ccccc1 [Compound 3, Ac(NahNpm)3] (Ac-[Gly(N-(CH2)6NH2)][Nphe][Gly(N-(CH2)6NH2)][Nphe][Gly(N-(CH2)6NH2)][Nphe]-NH2)
HC10 (concentration where 10% hemolysis is observed) [1]: >250 µg/mL
HC50 (concentration where 50% hemolysis is observed) [1]: >250 µg/mL
MIC S. aureus [2]: >500 µg/mL
MIC B. sub [3]: >500 µg/mL
MIC E. coli [4]: >500 µg/mL

NCCCN1CC(=O)N(Cc2ccc3ccccc3c2)CC(=O)N(CCCN)CC(=O)N(Cc2ccc3ccccc3c2)CC(=O)N(CCCN)CC(=O)N(Cc2ccc3ccccc3c2)CC1=O [Compound 21, C(NapNnm)3]
HC10 (concentration where 10% hemolysis is observed) [1]: >250 µg/mL
HC50 (concentration where 50% hemolysis is observed) [1]: >250 µg/mL
MIC S. aureus [2]: 31.3 µg/mL (≈ 33.5 µM)
MIC B. sub [3]: 0.5 µg/mL (≈ 0.535 µM)
MIC E. coli [4]: 31.3 µg/mL (≈ 33.5 µM)

CC(=O)N(CCCN)CC(=O)N(CC(=O)N(CCCN)CC(=O)N(CC(=O)N(CCCN)CC(=O)N(CC(=O)N(CCCN)CC(=O)N(CC(N)=O)Cc1ccccc1)Cc1ccccc1)Cc1ccccc1)Cc1ccccc1 [Compound 8, Ac(NapNpm)4] (Ac-[Gly(N(CH2)3NH2)][Nphe][Gly(N(CH2)3NH2)][Nphe][Gly(N(CH2)3NH2)][Nphe][Gly(N(CH2)3NH2)][Nphe]-NH2)
HC10 (concentration where 10% hemolysis is observed) [1]: >250 µg/mL
HC50 (concentration where 50% hemolysis is observed) [1]: >250 µg/mL
MIC S. aureus [2]: 250 µg/mL (≈ 226 µM)
MIC B. sub [3]: 31.3 µg/mL (≈ 28.3 µM)
MIC E. coli [4]: 250 µg/mL (≈ 226 µM)

CC(=O)N(CCCCNC(=N)N)CC(=O)N(CC(=O)N(CCCCNC(=N)N)CC(=O)N(CC(=O)N(CCCCNC(=N)N)CC(=O)N(CC(N)=O)Cc1ccccc1)Cc1ccccc1)Cc1ccccc1 [Compound 2, Ac(NgbNpm)3] (Ac-[NhArg][Nphe][NhArg][Nphe][NhArg][Nphe]-NH2)
HC10 (concentration where 10% hemolysis is observed) [1]: >250 µg/mL
HC50 (concentration where 50% hemolysis is observed) [1]: >250 µg/mL
MIC S. aureus [2]: 125 µg/mL (≈ 124 µM)
MIC B. sub [3]: 62.5 µg/mL (≈ 61.8 µM)
MIC E. coli [4]: 250 µg/mL (≈ 247 µM)

N=C(N)NCCCCN1CC(=O)N(Cc2ccccc2)CC(=O)N(CCCCNC(=N)N)CC(=O)N(Cc2ccccc2)CC(=O)N(CCCCNC(=N)N)CC(=O)N(Cc2ccccc2)CC1=O [Compound 18, C(NgbNpm)3] (cyclo([Nphe][NhArg][Nphe][NhArg][Nphe][NhArg]))
HC10 (concentration where 10% hemolysis is observed) [1]: >250 µg/mL
HC50 (concentration where 50% hemolysis is observed) [1]: >250 µg/mL
MIC S. aureus [2]: 250 µg/mL (≈ 263 µM)
MIC B. sub [3]: 125 µg/mL (≈ 131 µM)
MIC E. coli [4]: 250 µg/mL (≈ 263 µM)

CC(=O)N(CCCN)CC(=O)N(CC(=O)N(CCCN)CC(=O)N(CC(=O)N(CCCN)CC(=O)N(CC(=O)N(CCCN)CC(=O)N(CC(=O)N(CCCN)CC(=O)N(CC(N)=O)Cc1ccccc1)Cc1ccccc1)Cc1ccccc1)Cc1ccccc1)Cc1ccccc1 [Compound 9, Ac(NapNpm)5] (Ac-[Gly(N(CH2)3NH2)][Nphe][Gly(N(CH2)3NH2)][Nphe][Gly(N(CH2)3NH2)][Nphe][Gly(N(CH2)3NH2)][Nphe][Gly(N(CH2)3NH2)][Nphe]-NH2)
HC10 (concentration where 10% hemolysis is observed) [1]: >250 µg/mL
HC50 (concentration where 50% hemolysis is observed) [1]: >250 µg/mL
MIC S. aureus [2]: 62.5 µg/mL (≈ 45.8 µM)
MIC B. sub [3]: 15.6 µg/mL (≈ 11.4 µM)
MIC E. coli [4]: 31.3 µg/mL (≈ 22.9 µM)

CC(=O)N(CC(=O)N(CCCN)CC(=O)N(CC(=O)N(CCCN)CC(=O)N(CC(=O)N(CC(N)=O)Cc1ccccc1)Cc1ccccc1)Cc1ccccc1)Cc1ccccc1 [Compound 10, Ac(NpmNap)2Npm2] (Ac-[Nphe][Gly(N(CH2)3NH2)][Nphe][Gly(N(CH2)3NH2)][Nphe][Nphe]-NH2)
HC10 (concentration where 10% hemolysis is observed) [1]: >250 µg/mL
HC50 (concentration where 50% hemolysis is observed) [1]: >250 µg/mL
MIC S. aureus [2]: >500 µg/mL
MIC B. sub [3]: 31.3 µg/mL (≈ 35.7 µM)
MIC E. coli [4]: >500 µg/mL

CC(=O)N(CC(=O)N(CC(=O)N(CCCN)CC(=O)N(CC(=O)N1CCCC1C(=O)N(CC(=O)N(CC(=O)N(CCCN)CC(=O)N(CC(=O)N1CCCC1C(N)=O)C(C)C)CC(C)C)Cc1ccccc1)C(C)C)CC(C)C)Cc1ccccc1 (stereo not drawn) [Compound 13, Ac(NpmNibNapNipPro)2] (Ac-[Nphe][Nleu][Gly(N(CH2)3NH2)][N(iPr)Gly]P[Nphe][Nleu][Gly(N(CH2)3NH2)][N(iPr)Gly]P-NH2; configuration not given here)
HC10 (concentration where 10% hemolysis is observed) [1]: >250 µg/mL
HC50 (concentration where 50% hemolysis is observed) [1]: >250 µg/mL
MIC S. aureus [2]: >500 µg/mL
MIC B. sub [3]: >500 µg/mL
MIC E. coli [4]: >500 µg/mL

NCCCN1CC(=O)N(Cc2ccccc2)CC(=O)N(Cc2ccccc2)CC(=O)N(Cc2ccccc2)CC(=O)N(CCCN)CC(=O)N(Cc2ccccc2)CC1=O [Compound 26, C(NpmNap)2Npm2] (cyclo([Nphe][Nphe][Nphe][Gly(N(CH2)3NH2)][Nphe][Gly(N(CH2)3NH2)]))
HC10 (concentration where 10% hemolysis is observed) [1]: >250 µg/mL
HC50 (concentration where 50% hemolysis is observed) [1]: >250 µg/mL
MIC S. aureus [2]: 500 µg/mL (≈ 612 µM)
MIC B. sub [3]: 15.6 µg/mL (≈ 19.1 µM)
MIC E. coli [4]: 500 µg/mL (≈ 612 µM)

CC(=O)N(CCCN)CC(=O)N(CC(=O)N(CCCN)CC(=O)N(CC(=O)N(CCCN)CC(=O)N(CC(N)=O)Cc1ccccc1)Cc1ccccc1)Cc1ccccc1 [Compound 7, Ac(NapNpm)3] (Ac-[Gly(N(CH2)3NH2)][Nphe][Gly(N(CH2)3NH2)][Nphe][Gly(N(CH2)3NH2)][Nphe]-NH2)
HC10 (concentration where 10% hemolysis is observed) [1]: >250 µg/mL
HC50 (concentration where 50% hemolysis is observed) [1]: >250 µg/mL
MIC S. aureus [2]: 250 µg/mL (≈ 297 µM)
MIC B. sub [3]: 125 µg/mL (≈ 148 µM)
MIC E. coli [4]: 125 µg/mL (≈ 148 µM)
